According to patent US5382596A, “Substituted 2-aminotetralins” (priority 1993, dated 1995):
Counter-ions that a name gives are not always drawn. Like-named read-outs stand apart in the source and are kept apart here.

What was measured:
[1] = test system: denervated supersensitive postsynaptic dopamine receptors; assay: In vivo functional test: contralateral circling in rats with unilateral 6-hydroxydopamine lesions of the substantia nigra; parameters: species or system rat; details: contralateral circling, rats, unilateral 6-hydroxydopamine lesion
Text: Dopamine agonists produce contralateral circling behavior in rats in which unilateral lesions of the substantial nigra are made by prior injection of 6-hydroxydopamine. The circling is thought to be mediated by stimulation of denervated supersensitive postsynaptic dopamine receptors (Marshall and Ungerstedt, 1977, Eur. J. Pharmacol., 41:361-367).

Dopamine D1 receptor = Dopamine D1 receptor (Bos taurus, UniProt Q95136); assay: biochemical; assay type: binding, bovine
Description: (§1) Membranes were prepared using a Brinkmann Polytron and collected by centrifugation. Membrane sources were bovine caudate (D2,D1) or rat cortex (α2). The membranes were washed, resuspended, and incubated at 37° C. for 30 min. in either the presence (rat cortex) of 1 μ/ml adenosine deaminase or absence (bovine caudate) of 0.1 μ/ml adenosine deaminase. Membranes were centrifuged, washed once and frozen at -70° C. until used. Immediately before use, the membranes were thawed, washed once, and resuspended to a final concentration of 0.5-2 mg/ml. Assays were initiated by addition of membranes. For D2 and D1 assays, the radioligands and conditions used were ^3 H-Spiperone (RT, 75 min.) and ^3 H-SCH23390 (37° C., 15 min.), respectively. For α2 assays, ^3 H-PAC (RT, 30 min.) was used Assays were terminated by filtration using a Brandel cell harvester over Whatman GF/B filters that had been pretreated with 0.1% polyethylenimine. […]

Dopamine D2 receptor [2] = target: Dopamine D2 receptor (Bos taurus, UniProt P20288); assay: biochemical; assay type: binding, bovine
Description: as §1

dopamine D2 receptor [3] = target: dopamine D2 receptor (Mus musculus, UniProt P61168); assay: biochemical; assay type: biochemical
Description: Vasa deferentia from male BALB/C mice weighing approximately 30 g were removed and placed in isolated organ baths containing magnesium-free modified Krebs-Henseleit solution which was gassed with 95% O2 and 5% CO2 and maintained at 37° C. Tissues were set up under resting tension of 0.5 g and stimulated electrically at 60 volts, 0.1 Hz and 1 msec duration to produce a series of twitch responses. Tissues were pretreated with propranolol (1 μM) to block β-adrenoceptors, idazoxan (3 μM) to block α2 -adrenoceptors receptors, and ascorbic acid (100 μM) for 60 min before the addition of test compound.

adrenergic α2 receptor = target: T1, adrenergic α2 receptor (Rattus norvegicus, UniProt P22909); assay: Adrenergic α2 in vitro functional test (rat vas deferens, inhibition of twitch); assay type: biochemical
T1 sequence (P22909 1-465): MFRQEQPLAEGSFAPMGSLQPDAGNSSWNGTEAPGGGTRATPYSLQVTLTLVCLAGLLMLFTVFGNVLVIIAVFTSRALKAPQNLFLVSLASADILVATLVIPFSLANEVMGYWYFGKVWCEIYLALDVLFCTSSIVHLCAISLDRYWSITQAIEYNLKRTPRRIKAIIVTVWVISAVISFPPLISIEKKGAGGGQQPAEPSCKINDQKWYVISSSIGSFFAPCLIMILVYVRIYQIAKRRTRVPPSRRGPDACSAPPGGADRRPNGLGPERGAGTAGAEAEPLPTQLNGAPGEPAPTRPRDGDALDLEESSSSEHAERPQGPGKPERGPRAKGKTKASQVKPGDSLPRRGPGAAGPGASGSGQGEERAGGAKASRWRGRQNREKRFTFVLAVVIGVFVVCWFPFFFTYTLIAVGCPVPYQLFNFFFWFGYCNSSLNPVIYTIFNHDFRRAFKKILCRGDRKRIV
Description: Vasa deferentia from male Sprague-Dawley rats weighing between 150-250 g were removed and placed in isolated organ baths containing Krebs-Henseleitsolution under a resting tension of 1 g. All other set up conditions were identical to those used for the mouse was deferens. Tissues were pretreated with propranolol (1 μM), ascorbic acid (100 μM) and the α1 -adrenergic antagonist prazosin (0.3 or 1 μM) for 60 min before the addition of test compound.

[4] = bovine caudate membranes, 3H-SCH23390, 37° C., 15 min, read-out: D1 K1
[5] = bovine caudate membranes, 3H-Spiperone, RT, 75 min, read-out: D2 K1
[6] = concentration that produces 50% of the maximal inhibition of twitch, mouse vas deferens, read-out: D2 A50
[7] = concentration that produces 50% of the maximal inhibition of twitch, rat vas deferens, read-out: a2 A50

Dopamine D1 receptor, sequence (Q95136 whole entry): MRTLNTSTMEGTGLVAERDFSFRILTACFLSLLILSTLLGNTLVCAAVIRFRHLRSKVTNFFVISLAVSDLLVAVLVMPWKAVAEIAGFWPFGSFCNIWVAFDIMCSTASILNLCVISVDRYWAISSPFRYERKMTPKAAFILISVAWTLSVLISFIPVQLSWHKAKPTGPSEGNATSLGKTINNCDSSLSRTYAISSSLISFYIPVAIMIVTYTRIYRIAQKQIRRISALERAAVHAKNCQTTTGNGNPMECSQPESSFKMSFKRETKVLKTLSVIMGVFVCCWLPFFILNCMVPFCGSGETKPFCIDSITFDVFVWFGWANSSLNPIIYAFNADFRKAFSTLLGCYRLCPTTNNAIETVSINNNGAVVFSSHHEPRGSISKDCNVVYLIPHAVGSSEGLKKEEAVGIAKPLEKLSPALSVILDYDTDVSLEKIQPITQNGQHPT
dopamine D2 receptor, sequence (P61168 whole entry): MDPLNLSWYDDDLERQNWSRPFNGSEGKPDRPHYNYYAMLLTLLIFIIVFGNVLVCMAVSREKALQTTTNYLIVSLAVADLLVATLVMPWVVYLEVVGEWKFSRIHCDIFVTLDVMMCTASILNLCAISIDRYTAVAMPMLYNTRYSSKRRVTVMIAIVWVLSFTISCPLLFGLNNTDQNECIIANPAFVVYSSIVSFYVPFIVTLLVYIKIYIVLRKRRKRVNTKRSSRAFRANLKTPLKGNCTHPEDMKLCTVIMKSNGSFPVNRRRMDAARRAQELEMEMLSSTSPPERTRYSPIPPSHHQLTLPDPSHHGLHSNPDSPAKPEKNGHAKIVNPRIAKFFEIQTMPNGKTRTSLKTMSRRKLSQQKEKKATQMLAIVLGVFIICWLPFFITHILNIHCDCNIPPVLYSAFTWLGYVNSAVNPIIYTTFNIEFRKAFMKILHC
Dopamine D2 receptor, sequence (P20288 whole entry): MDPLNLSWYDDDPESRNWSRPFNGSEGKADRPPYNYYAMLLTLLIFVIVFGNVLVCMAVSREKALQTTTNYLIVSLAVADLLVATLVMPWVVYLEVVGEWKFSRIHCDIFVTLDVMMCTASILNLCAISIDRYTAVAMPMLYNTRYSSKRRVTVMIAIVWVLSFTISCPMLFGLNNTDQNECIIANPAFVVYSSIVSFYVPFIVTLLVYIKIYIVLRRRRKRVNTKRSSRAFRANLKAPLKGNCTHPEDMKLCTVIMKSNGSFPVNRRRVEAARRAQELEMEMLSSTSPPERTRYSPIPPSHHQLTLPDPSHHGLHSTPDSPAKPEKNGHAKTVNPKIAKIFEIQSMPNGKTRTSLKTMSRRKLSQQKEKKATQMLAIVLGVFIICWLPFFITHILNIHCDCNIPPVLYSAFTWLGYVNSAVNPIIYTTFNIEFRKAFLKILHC

SMILES	ED50 [1]	Ki (Dopamine D1 receptor; [4])	Selectivity Ratio (D1 K1/D2 K1) (Dopamine D2 receptor [2])	Ki (Dopamine D2 receptor [2]; [5])	Specificity Ratio (a2 A50/D2 A50) (dopamine D2 receptor [3])	EC50 (dopamine D2 receptor [3]; [6])	EC50 (adrenergic α2 receptor; [7])	Ki (Dopamine D1 receptor)	Ki (Dopamine D2 receptor [2])	EC50 (dopamine D2 receptor [3])	EC50 (adrenergic α2 receptor)
CCCOCCN(CCC)[C@H]1CCc2c(ccc3c2OCO3)C1 [Example 28]	0.100 µmol/kg										
CCCN(CCOC(C)C)[C@H]1CCc2c(ccc(O)c2O)C1.Cl [Example 1, (S)-5,6,7,8-Tetrahydro-6-[[2-(1-methylethoxy)ethyl]-propylamino]-1,2-naphthalenediol, hydrochloride]	0.004 µmol/kg	7240 nM	112	65 nM	1480	0.148 nM	218 nM				
CCCN(CCOC1CC1)[C@H]1CCc2c(O)cccc2C1 [Example 17]	0.009 µmol/kg	9770 nM	21	468 nM	> 17000	0.589 nM	> 10000 nM				
CCCN(CC1CCCCO1)[C@H]1CCc2c(O)cccc2C1 (stereo partly drawn) [Example 20]	0.030 µmol/kg	7080 nM	7	1070 nM	191	1 nM	190 nM				
CCCN(CCOC(C)(C)C)[C@H]1CCc2c(ccc3c2OCO3)C1 [Example 29]	0.040 µmol/kg										
CCCN(CCC)C1CCc2c(O)cccc2C1 (stereo not drawn) [Example 39, 5-hydroxy-2-(di-n-propyl)aminotetralin, reference compound]	0.010 µmol/kg		5		120			3800 nM	790 nM	2.14 nM	257 nM
CCCN(CCOC1CCC1)[C@H]1CCc2c(O)cccc2C1 [Example 18]	0.020 µmol/kg	8910 nM	45	200 nM	> 14800	0.676 nM	> 10000 nM				
CCCN(CCCOC)[C@H]1CCc2c(O)cccc2C1 [Example 41, (S)-5,6,7,8-tetrahydro-6-[(3-methoxypropyl)propylamino]-l-naphthalenol, reference compound]	0.020 µmol/kg	11000 nM	14	790 nM	257	0.91 nM	234 nM				
CCCN(CCC1CCOC1)[C@H]1CCc2c(O)cccc2C1 (stereo partly drawn) [Example 24]	0.020 µmol/kg	5620 nM	21	263 nM	158	0.776 nM	123 nM				
CCCCCOCCN(CCC)[C@H]1CCc2c(ccc(O)c2O)C1 [Example 10]	0.030 µmol/kg	2450 nM	46	54 nM	1000	0.093 nM	93.3 nM				
CCCN(CCOC(C)CC)[C@H]1CCc2c(ccc(O)c2O)C1 (stereo partly drawn) [Example 5]	0.006 µmol/kg	4570 nM	40	115 nM	1020	0.24 nM	245 nM				
CCCCOCCN(CCC)[C@H]1CCc2c(ccc(O)c2O)C1 [Example 8, (S)-6-[[2-(butoxy)ethyl]propylamino]-5,6,7,8-tetrahydro-1,2-naphthalenediol]	0.004 µmol/kg	5890 nM	52	112 nM	398	0.269 nM	107 nM				
CCCN(CC1CCCO1)[C@H]1CCc2c(O)cccc2C1 (stereo partly drawn) [Example 22]	0.030 µmol/kg	16200 nM	11	1510 nM	1620	2.19 nM	3550 nM				
CCCN(CCC1CCCO1)[C@H]1CCc2c(O)cccc2C1 (stereo partly drawn) [Example 19]	0.020 µmol/kg	1510 nM	14	110 nM	6310	0.275 nM	1740 nM				
CCN(CCC1CCCO1)[C@H]1CCc2c(O)cccc2C1 (stereo partly drawn) [Example 25]		6610 nM	57	117 nM	> 14100	0.708 nM	> 10000 nM				
CCCN(CC1CCOC1)[C@H]1CCc2c(ccc(O)c2O)C1 (stereo partly drawn) [Example 15]	0.009 µmol/kg	1100 nM	1	1100 nM	118	0.141 nM	16.6 nM				
CCCN(CCOCC)[C@H]1CCc2c(ccc3c2OCO3)C1 [Example 27]	0.100 µmol/kg										
CCCN(CCOCC)[C@H]1CCc2c(ccc(O)c2O)C1 [Example 2, (S)-6-[[2-(ethoxy)ethyl]propylamino]-5,6,7,8-tetrahydro-1,2-naphthalenediol]	0.004 µmol/kg	6310 nM	20	316 nM	45	0.417 nM	18.6 nM				
CCCN(CCOC(C)C)[C@H]1CCc2c(ccc3oc(=O)oc23)C1 [Example 38, (S)-5,6,7,8-Tetrahydro-6-[[2-(1-methylethoxy)ethyl]-propylamino]-1,2-naphthalenediol, cyclic carbonate, hydrochloride]	0.005 µmol/kg										
CCCN(CCC)[C@H]1CCc2c(ccc(O)c2O)C1 [Example 40, (S)-5,6-dihydroxy-2-(di-n-propyl)aminotetralin, reference compound]	0.009 µmol/kg										12.5 nM
CCCN(CCOC(C)C)[C@H]1CCc2c(ccc3c2OCO3)C1.Cl [Example 26, (S)-6,7,8,9-Tetrahydro-N-[2-(1-methylethoxy)ethyl]-N-propylnaphtho[1,2-d]-1,3-dioxol-7-amine, hydrochloride]	0.030 µmol/kg										
